Measurements as given in a melting point compilation (Tetko et al.; mined from patent text by program, amines drawn as free bases though some values may be those of a salt).

| Compound | melting point [°C] |
| --- | --- |
| CC(NC(=S)NCc1ccc(C(C)(C)C)cc1)c1ccc(NS(C)(=O)=O)cc1 (configuration not stated) | 101 |
| O=C(Nc1cc(O)c(Cl)cc1F)OCc1ccccc1 | 70 to 72 |
| CN(C)C(=O)C1CCN(c2c(Cl)cncc2Cl)CC1 | 120 to 122 |
| CCn1ncc2c(NC3CCc4ccccc43)c3ccccc3nc21 (configuration not stated) | 233 to 235 |
| CCCCCCCCCCCCCCc1ccc(O)cc1 | 70 to 71 |
| COC(=O)c1ccsc1S(=O)(=O)Cl | 51 to 54 |
| FC(F)(F)c1cc(Cl)c(-n2nccc2Cl)c(Cl)c1 | 70 to 72 |
| NC(=O)c1nccn1C1Cc2cc(F)ccc2C1=O (configuration not stated) | 221 |
| COc1cc2ncnc(N3CCN(C(=S)Nc4ccc(CNC(=O)OC(C)(C)C)cc4)CC3)c2cc1OC | 123 to 126 |
| CCN1c2ncc(CCc3cccc(C)c3)cc2C(=O)N(C)c2cccnc21 | 103 to 104 |
| O=c1c2c(Cl)cccc2nc(C(S)c2ncnc3[nH]cnc23)n1-c1ccccc1Cl (configuration not stated) | 234 |
| Nc1ccc(-c2cnc(COCc3cc4ccccc4o3)o2)cc1 | 96 to 98 |
| O=C(c1nc2ccc(O)cc2[nH]1)N1CCC(Cc2ccccc2)CC1 | 186 |
| CC(C)(Oc1ccccc1S(C)(=O)=O)C(=O)O | 114 to 116 |
| CCc1[nH]n(C2CCCC2)c2nc(Cc3ccc([N+](=O)[O-])cc3)nc(=O)c1-2 | 221 to 223 |
| CN1CCN(Cc2ccc(-c3cccc(-c4ccnc5c(C(=O)c6cccs6)cnn45)c3)cc2)CC1 | 199 to 202 |
| CC(C)c1c(C=CC(=O)CC(O)CC(=O)O)c(-c2ccccc2)c2c3ccccc3ccn12 (configuration not stated) | 95 to 100 |
| Cn1ccnc1-c1ccccc1N | 152 to 153 |
| Cc1c2ccccc2cc2[nH]c(S)nc12 | > 300 |
| CSc1nc(C)nc(N)n1 | 161 to 163 |

| Compound | melting point [°C] |
| --- | --- |
| CC1(C)CC(O)c2cc(N)ccc21 (configuration not stated) | 118 |
| CCOP(=O)(CCCCCCCOc1nc(-c2ccccc2)c(-c2ccccc2)n1-c1ccccc1)OCC | 76 to 77 |
| Cc1ccc(C)c(OC(C)(C)C(=O)O)c1 | 107 to 109 |
| CCOP(=O)(/C=C/c1cn(-c2ccccc2)nc1OCc1ccc(OCc2nc(-c3cccc(OCC(=O)O)c3)oc2C)c(OC)c1)OCC | 166 to 168 |
| CC(C)(C)OC(=O)N1C[C@@H]2SCCC(c3ccccc3)(c3ccccc3)[C@@H]2C1 (racemic) | 162 |
| Cc1cccc2c1CCC(=NO)C2(O)C(F)(F)F (configuration not stated) | 154 to 156 |
| COc1nc(-c2ccccc2)c(-c2ccc(=O)n(C(C)C)n2)cc1C#N | 187 to 189 |
| N#Cc1ccc2c(c1)C(=O)CC2 | 109 |
| O=C(O)CCC(O)c1ccc(-c2ccc(F)cc2F)cc1 (configuration not stated) | 111 to 112 |
| CC(=O)CCc1ccc2c(c1)Cc1cc(N)ccc1-2 | 116 to 117 |
| CCOC(=O)c1cn(Cc2ccccc2)nc1OCc1ccc(OCc2nc(-c3ccco3)oc2C)nc1 | 140 to 141 |
| c1ccc(C(c2ccccc2)N2CCN(CCCCCCNc3ccc4nncn4n3)CC2)cc1 | 133 to 139 |
| CCOc1nn(Cc2ccc(OCCn3ncc4ccccc4c3=O)cc2)cc1CCC(=O)O | 152 to 153 |
| NS(=O)(=O)c1ccccc1SCCF | 83 to 85 |
| Cc1cccc(-c2[nH]c(C(C)C)nc2-c2ccc(F)c(-c3cc[nH]c3)c2)n1 | 106 to 110 |
| CCCCCCCCCCOc1ccc(C(=O)NNC(=O)C(F)(F)C(F)(F)C(F)(F)F)cc1 | 88 |
| C#CCOc1cc(N=C(C=NOC)N2CCCC2)c(F)cc1Cl | 73 to 75 |
| CS(=O)(=O)Nc1cc(C(O)CNCCCCCCOCCCc2ccc(Cl)s2)ccc1O (configuration not stated) | 85 to 87 |
| O=C1NCCOC1C(O)c1ccccc1 (configuration not stated) | 130 to 140 |
| Cc1cc2[nH]c3ncccc3c(=O)n2n1 | > 300 |

Continued, values first:

| melting point [°C] | Compound |
| --- | --- |
| 153 | Cc1c(NC(=O)c2ccc(CC(=O)CC(C)C)cc2)ccc2cc(CN3CCCC3)cnc12 |
| 105 to 106 | Cc1nnc(C=Cc2ccccc2OC[C@@H](O)CN2CCC(c3ccc4ccccc4c3)CC2)o1 |
| 248 | CN(C)c1cc2c(cc1C(F)(F)F)NC(=O)CC(c1ccnc(C#N)c1)=N2 |
| 369 to 371 | Cc1cc(-n2cnnc2)cc2ccc(=O)[nH]c12 |
| 201 to 203 | Cc1c(SCCN2CCOCC2)ccnc1CSc1nc2ccccc2[nH]1 |
| 244 to 246 | CCn1c(=O)n(-c2ccc(Oc3nc4cccnc4n3C)cc2)c2nccc(C(F)(F)F)c21 |
| 78 to 79 | O=C(Cl)c1cscc1S(=O)(=O)Cl |
| 218 to 219 | COc1ccc(CNc2nnc(-n3ccc(=O)cc3)c3ccc(C#N)cc23)cc1Cl |
| 121 to 124 | CC(C)Oc1ccc(C(=O)n2nc(Nc3cccc(N4CCCCC4)c3)nc2N)cc1 |
| 221 | CCOC(=O)N1CCN(c2ccc(-n3cn[nH]c3=O)cn2)CC1 |
| 190 to 192 | CC(C)(N)CNc1ccc(C2=NNC(=O)CC2)cc1 |
| 137 to 141 | COC(=O)CSc1cc(NC(=S)N2CCCN2)c(F)cc1Cl |
| 116 to 120 | CCCN(CCC)CCOc1ccc(NC(=O)c2c(OC)cccc2OC)cc1 |
| 128 to 129 | N#CCCCOc1ccc(CNc2ccc(-n3nc(-c4cccnc4)cc3C#N)cc2)cc1 |
| 123 to 124 | COC(=O)c1cc(OC)c(C(=O)O)cc1OC |
| 161 to 163 | CCOC(=O)c1ccc(NC(=O)C=C(c2ccc(F)cc2)c2ccc(F)cc2)cc1 |

| melting point [°C] | Compound |
| --- | --- |
| 104 to 106 | CCOC(=O)C1=C(C)NC(COC(C)=O)=C(C(=O)OCC)C1c1ccccc1 (configuration not stated) |
| 209 | CCS(=O)(=O)Nc1ccc(CN(CC2(c3ccccn3)CCCCC2)C(=O)Nc2c(C(C)C)cccc2C(C)C)cc1 |
| 224 to 226 | O=C1CN(c2cccc(Cl)c2)NC(=O)N1 |
| 100 | Brc1ccc(N2CCN(Cc3ccccc3)CC2)nc1 |
| > 310 | O=C(O)C(=O)Nc1cccc(NC(=O)C(=O)O)n1 |
| 206 to 208 | O=c1c2c(Cc3cccc(C(F)(F)F)c3)n[nH]c2c2cccnc2n1-c1cccc(C(F)(F)F)c1 |
| 148 | CCn1c2ccc(C(=O)CC(C)=O)cc2c2cc(C(=O)c3ccccc3C)ccc21 |
| 110 to 112 | CC(=O)c1cc(Cl)cc(Oc2ncccc2C(=O)NCc2ccc(C(C)(C)O)cc2)c1 |
| 106 to 107 | CC(C)c1nc(CCCO)n(Cc2ccncc2)c1Sc1cc(Cl)cc(Cl)c1 |
| 60 to 61 | CCOC(=O)/C(=C\Nc1cccc(OC)c1)c1ccc(OC)cc1 |
| 160 to 162 | Nc1nc2ccc(C(O)C(CNC(=O)c3ccccc3)N3CCC(Cc4ccccc4)CC3)cc2s1 (configuration not stated) |
| 251 to 252 | CC1CC(=O)Nc2nc(Br)c3ncccc3c21 (configuration not stated) |
| 176 to 177 | Cc1noc2cc3c(cc12)C1(CO3)C(=O)N(Cc2cccnc2)c2ccccc21 (configuration not stated) |
| 268 to 280 | Cc1cc2c(C(=O)O)ccc(C(=O)O)c2cc1C |
| 108 | CCn1cc(CN(C(=O)Nc2c(C)cccc2C)c2ccc(C(C)C)cc2)cn1 |
| 167 to 168 | COC(=O)c1cc(OC)c(OC)cc1NC(=O)c1sccc1S(=O)(=O)Nc1onc(C)c1Cl |
